Measurements as given in patent US9174964B2, “AMPK-activating piperidinyloxy-substituted 2,3-dihydro-1H-indene-1-amine compounds and pharmaceutical compositions including the same” (Rigel Pharmaceuticals, Inc., priority 2007, dated 2015).

Molecular target: AMPK
Assay: AMPK activation, enzyme-linked immunosorbent assay
Type: biochemical
Conditions: Table 2, AMPK activation, ELISA
Experimental: Compounds 1-50 of Table 1 were assayed for their ability to activate AMPK using an enzyme-linked immunosorbent assay.
Compounds 51-60 of Table 1 were assayed for their ability to activate AMPK using an enzyme-linked immunosorbent assay.
Compounds 61-131 of Table 1 were assayed for their ability to activate AMPK using an enzyme-linked immunosorbent assay.
Compounds 137-141 and 143-155 of Table 1 were assayed for their ability to activate AMPK using an enzyme-linked immunosorbent assay.
Compounds 156-160 of Table 1 were assayed for their ability to activate AMPK using an enzyme-linked immunosorbent assay.

Row | SMILES | EC50 [nM]
1 | N#Cc1ccc(CN2CCC(NC(=O)c3ccc(OC4CCN(c5ccc(C(F)(F)F)cc5)CC4)nc3)CC2)cc1 [Compound 35, N-(1-(4-cyanobenzyl)piperidin-4-yl)-6-(1-(4-(trifluoromethyl)phenyl)piperidin-4-yloxy)nicotinamide] | 100 to 500
2 | N#Cc1ccc(CN2CCC(NC(=O)c3ccc(OC4CCN(c5ccc(C#N)cc5)CC4)cn3)CC2)cc1 [Compound 2, N-(1-(4-cyanobenzyl)piperidin-4-yl)-5-(1-(4-cyanophenyl)piperidin-4-yloxy)picolinamide] | < 100
3 | N#Cc1ccc(CN2CCC(NC(=O)c3cc(OC4CCN(c5ccc(C(F)(F)F)cc5)CC4)ccn3)CC2)cc1 [Compound 28, N-(1-(4-cyanobenzyl)piperidin-4-yl)-4-(1-(4-(trifluoromethyl)phenyl)piperidin-4-yloxy)picolinamide] | < 100
4 | O=C(NC1CCN(Cc2ccc(F)cc2)CC1)c1cncc(OC2CCN(c3ccc(C(F)(F)F)cc3)CC2)c1 [Compound 16, N-(1-(4-fluorobenzyl)piperidin-4-yl)-5-(1-(4-(trifluoromethyl)phenyl)piperidin-4-yloxy)nicotinamide] | < 100

Same assay, conditions: Table 3, AMPK activation, ELISA

Row | SMILES | EC50 [nM]
5 | O=S(=O)(NC1CCN(Cc2ccncc2)CC1)c1ccc(OC2CCN(c3ccc(C(F)(F)F)cc3)CC2)nc1 [Compound 51, N-(1-(pyridin-4-ylmethyl)piperidin-4-yl)-6-(1-(4-(trifluoromethyl)phenyl)piperidin-4-yloxy)pyridine-3-sulfonamide] | 100 to 500

Same assay, conditions: Table 4, AMPK activation, ELISA

Row | SMILES | EC50 [nM]
6 | N#Cc1ccc(CN2CCC(Oc3ccc4oc(C(=O)NC5CCN(Cc6ccccc6)CC5)cc4c3)CC2)cc1 [Compound 114, N-(1-benzylpiperidin-4-yl)-5-(1-(4-cyanobenzyl)piperidin-4-yloxy)benzofuran-2-carboxamide] | 100 to 500
7 | NC(=O)c1ccc(CN2CCC(Oc3ccc4oc(C(=O)NC5CCN(Cc6ccccc6)CC5)cc4c3)CC2)cc1 [Compound 116, N-(1-benzylpiperidin-4-yl)-5-(1-(4-carbamoylbenzyl)piperidin-4-yloxy)benzofuran-2-carboxamide] | 100 to 500
8 | Cc1c(C(=O)NC2CCN(Cc3ccc(C#N)cc3)CC2)oc2cc(OC3CCN(c4ccc(C(F)(F)F)cc4)CC3)ccc12 [Compound 64, N-(1-(4-cyanobenzyl)piperidin-4-yl)-3-methyl-6-(1-(4-(trifluoromethyl)phenyl)piperidin-4-yloxy)benzofuran-2-carboxamide] | < 100
9 | CC(C)(C)OC(=O)N1CC[C@@H](NC(=O)c2cc3cc(OC4CCN(c5ccc(C(F)(F)F)cc5)CC4)ccc3o2)C1 [Compound 120, (R)-tert-butyl 3-(5-(1-(4-(trifluoromethyl)phenyl)piperidin-4-yloxy)benzofuran-2-carboxamido)pyrrolidine-1-carboxylate] | 1000 to 10000
10 | O=C(NC1CCN(Cc2ccc(C(F)(F)F)cc2)CC1)c1cc2ccc(OC3CCN(c4ccc(C(F)(F)F)cc4)CC3)cc2o1 [Compound 99, N-(1-(4-(trifluoromethyl)benzyl)piperidin-4-yl)-6-(1-(4-(trifluoromethyl)phenyl)piperidin-4-yloxy)benzofuran-2-carboxamide] | < 100
11 | CN(C(=O)c1cc2cc(OC3CCN(c4ccc(C(F)(F)F)cc4)CC3)ccc2o1)C1CCNCC1 [Compound 103, N-methyl-N-(piperidin-4-yl)-5-(1-(4-(trifluoromethyl)phenyl)piperidin-4-yloxy)benzofuran-2-carboxamide] | 1000 to 10000

Same assay, conditions: Table 5, AMPK activation, ELISA

Row | SMILES | EC50 [nM]
12 | O=C(NC1CCNCC1)c1sc2cc(OC3CCN(c4ccc(C(F)(F)F)cc4)CC3)ccc2c1Cl [Compound 148, 3-chloro-N-(piperidin-4-yl)-6-(1-(4-(trifluoromethyl)phenyl)piperidin-4-yloxy)benzo[b]thiophene-2-carboxamide] | > 50000
13 | O=C(NC1CCN(C(=O)c2ccncc2)CC1)c1sc2cc(OC3CCN(c4ccc(C(F)(F)F)cc4)CC3)ccc2c1Cl [Compound 155, 3-chloro-N-(1-isonicotinoylpiperidin-4-yl)-6-(1-(4-(trifluoromethyl)phenyl)piperidin-4-yloxy)benzo[b]thiophene-2-carboxamide] | < 100
